Test results reported in US20100179225A1, “POI Prevention” (CYTOKINE PHARMASCIENCES, INC., priority 2008, published 2010).

How the values were obtained:
[1] = test system: mice; assay: In vivo gastrointestinal transit (FITC-dextran geometric center) after IM, mouse
Protocol: Gastrointestinal transit was measured 23.5 hours postoperatively by evaluating the intestinal location of a fluorochrome labeled dextran (FITC—dextran, 70.000 MW, Molecular Probes, Netherlands) (n=10 each). Thereto, 22 hours after the bowel manipulation, animals were lightly anesthetized and given FITC-dextran (200 μl of 6.25 mg/ml stock solution) via a gastric tube into the stomach. Mice were killed 90 minutes after administration, the entire gastrointestinal tract was divided into 15 segments, opened and FITC-dextran was washed out by PBS. Fluorescence of segment washes was read at 494 nm/521 nm wavelength in fluorescence reader (Tecan, Crailsheim, Germany). The data were expressed as the percentage of activity per segment. Gastrointestinal transit was calculated as the geometric center (GC) of distribution of fluorescence marker using this formula:
GC=Σ(% of total fluorescent signal per segment*segment number)/100.

[2] = test system: jejunal circular smooth muscle; assay: In vitro jejunal circular smooth muscle contractility (bethanechol) after IM, mouse; type: in vivo, mice
Protocol: Jejunal smooth muscle activity was measured as previously described (Kalff J C, Schraut W H, Simmons R L et al. Surgical manipulation of the gut elicits an intestinal muscularis inflammatory response resulting in postsurgical ileus. Ann Surg 1998; 228:652-663). Briefly, after preparation, mucosa-free circular ME strips were equilibrated in KRB perfused organ chambers at 37° C. for 1 hour. One end of each strip was tied to a fixed post and the other attached to an isometric force transducer (ADI, Heidelberg, Germany) connected to the bridge amplifier and powerlab system (ADI). Dose-response curves of muscle contraction were generated by exposing the muscle strips to increasing concentrations of the muscarinic agonist bethanechol (0.1-300 μmol/L) for 10 minutes, followed by a wash-period (KRB) of 10 minutes. The contractile response was analyzed with the ADI Chart© software and the contractions were calculated as grams per square millimeter per second by conversion of the weight and length of the strip to square millimeters of tissue.

[3] = test system: neutrophils in ME; assay: Neutrophil infiltration into mouse ME (myeloperoxidase staining of whole mounts) after IM; type: in vivo, mice; conditions: for number of neutrophils in ME: 24 hours after IM
From the text: The small bowel of the animals was subjected to a standardized, surgical manipulation (IM) as described previously (Kalff J C, Schraut W H, Simmons R L et al. Surgical manipulation of the gut elicits an intestinal muscularis inflammatory response resulting in postsurgical ileus. Ann Surg 1998; 228:652-663; Wehner S, Schwarz N T, Hundsdoerfer R et al. Induction of IL-6 within the rodent intestinal muscularis after intestinal surgical stress. Surgery 2005; 137:436-446). In brief, after anesthesia a midline abdominal incision was made into the peritoneal cavity. The entire small bowel was eventuated and manipulated with standardized moderate intensity using two moist cotton applicators as described previously. After IM, the laparotomy was closed by one layer of continuous suture, except when probe sampling was conducted within 20 minutes after surgery. These animals were held in anesthesia and the abdomen was closed by a clamp and protected with sterile gauze. All other animals recovered rapidly from the bowel manipulation procedure. Control animals exclusively underwent laparotomy without eventration and IM (sham operation).
Animals within examples referring to FIGS. 2-9 were treated 90 minutes before operation with 0 mg/kg (placebo group), or 5 mg/kg bodyweight CNI-1493. In further experiments in rats or mice 0.1, 1.0 or 10 mg/kg CPSI-2364 were administered 90 minutes before surgical procedure via oral route. Oral (p.o.) administration was performed via a gastric tube. CNI-1493 and CPSI-2364 were dissolved in 2.5% mannitol. Placebo and CNI-1493 or CPSI-2364 groups were subdivided in two further groups. One was sham operated (laparotomy without IM) while the other underwent laparotomy followed by IM.
Specimens for histochemical analysis were prepared 24 h after operation and performed on whole mounts of the distal jejunum, as described before in detail (n=5-7 each group) 9. In brief, jejunal segments were opened, immersed in chilled Krebs-Ringer buffer (KRB) and fixed in 100% ethanol for 10 minutes. After washing with KRB, mucosa and submucosa were stripped off and ME whole mounts were used for detection of myeloperoxidase (MPO) positive cells (neutrophils). Thereto, freshly prepared whole mounts were stained with Hanker-Yates reagent as described previously (Wehner S, Schwarz N T, Hundsdoerfer R et al. Induction of IL-6 within the rodent intestinal muscularis after intestinal surgical stress. Surgery 2005; 137:436-446). MPO+-cells were counted under a microscope (TE-2000, Nikon, Duesseldorf, Germany) in 5 randomly chosen areas in each specimen.

[4] = test system: mice; assay: In vivo colonic transit (glass ball excretion time) after IM, mouse
Protocol: Colonic transit measurement was performed 24 h hours after operation by inserting a 2 mm glass ball with a metal rod 3 cm into the colon. Before insertion colonic patency was ensured by exclusively inserting the rod 3 cm into the colon. Mice were weakly anesthetized with isofluran for the whole procedure and wake up within 40 seconds after glass ball insertion. Colonic transit time was calculated as the period between insertion and excretion of the ball.

[5] = test system: nitric oxide (NO) production in ME; assay: Nitric oxide release from cultured mouse ME (Griess reaction) after IM; type: in vivo, mice
Protocol: […] Control animals received CNI-1493 (5 mg/kg) intravenously or CPSI-2364 orally (1 mg/kg or 0.1 mg/kg), but were not operated.
After preoperative i.v. or oral drug or placebo administration animals underwent IM. Control animals received CNI-1493 or placebo i.v. or orally but were not operated.
Total ME from small intestine was isolated 24 h after operation as described above and then cut into small pieces and washed for 30 minutes in PBS containing a penicillin/streptomycin (200U/200 μg) mixture. Aliquots of ˜50 mg were incubated in 1 mL of DMEM at 37° C. and 5% CO2 for further 24 hours and tissue culture supernatants were frozen in liquid nitrogen. The muscle tissue was blotted dry, and the exact weight was measured. To quantify the generation of NO from intestinal smooth muscle preparations, nitrite production was measured by the Griess reaction as described previously (Kalff J C, Schraut W H, Billiar T R et al. Role of inducible nitric oxide synthase in postoperative intestinal smooth muscle dysfunction in rodents. Gastroenterology 2000; 118:316-327). In brief, supernatant from the tissue culture was mixed with an equal volume of Griess reagent (0.1% N-(1-napthyl)ethyl-enediamine dihydrochloride and 1% sulfanilamide in 6% phosphoric acid; 1:1) and incubated for 10 minutes. The absorbance at 550 nm was measured with a microplate reader and compared with standard dilutions of sodium nitrite. Total nitrite produced was normalized to 1 g of muscle tissue.

C/C(=N\N=C(N)N)c1cc(NC(=O)CCCCCCCCC(=O)Nc2cc(/C(C)=N/N=C(N)N)cc(/C(C)=N/N=C(N)N)c2)cc(/C(C)=N/N=C(N)N)c1.CS(=O)(=O)O.CS(=O)(=O)O.CS(=O)(=O)O.CS(=O)(=O)O [CPSI-2364]
geometric centers of FITC dextran distribution vs Sham+Placebo ([1]; mice, 0.1, 1 or 10 mg/kg orally 90 minutes, 6 hours or 16 h before operation, IM (FIG. 25)): None of the CPSI-2364 treated groups differed significantly from the Sham+Placebo group | gastrointestinal transit (GIT) ([1]; mice, p.o. preoperative, IM (FIG. 14)): normalized GIT | suppression of bethanechol stimulated muscle contractility after IM ([2]; mice, p.o. preoperative (FIG. 13)): strongly abrogated | neutrophils in ME compared to the placebo IM group ([3]; mice, p.o. preoperative, 24 hours after IM (FIG. 11)): significant reduction of neutrophils | colonic transit, excretion time of the ball vs Sham+Placebo ([4]; mice, 0.1, 1 or 10 mg/kg orally 90 minutes, 6 hours or 16 h before operation, IM (FIG. 26)): None of the CPSI-2364 treated group differed significantly from Sham+Placebo group | nitric oxide and its metabolites in muscularis culture supernatant vs Sham+Placebo ([5]; mice, 10 mg/kg orally 90 minutes or intravenously 60 minutes before operation, IM (FIG. 27)): None of the CPSI-2364 treated group differed significantly different from Sham+Placebo group

C/C(=N\N=C(N)N)c1cc(NC(=O)CCCCCCCCC(=O)Nc2cc(/C(C)=N/N=C(N)N)cc(/C(C)=N/N=C(N)N)c2)cc(/C(C)=N/N=C(N)N)c1.Cl.Cl.Cl.Cl [CNI-1493]
gastrointestinal transit, geometric center (GC) ([1]; 5 mg/kg i.p. preoperative, IM): 10.96±1.71 | gastrointestinal transit, geometric center (GC) ([1]; 5 mg/kg i.p., sham operated): 9.81±0.92 | gastrointestinal transit, geometric center (GC) ([1]; 5 mg/kg i.v. 90 minutes before operation, IM): 8.97±0.60 | gastrointestinal transit, geometric center (GC) ([1]; 5 mg/kg i.v., sham operated): 11.98±0.73 | gastrointestinal transit, geometric center (GC) ([1]; given immediately before laparotomy and IM (results not shown)): 5.48±2.01 | suppression of bethanechol stimulated muscle contractility after IM ([2]; 5 mg/kg i.v. preoperative, 24 h after IM): completely abrogated | number of neutrophils in ME ([3]; 5 mg/kg i.p. preoperative): 36.1±10.7 | number of neutrophils in ME ([3]; 5 mg/kg i.v. preoperative): 52.1±15.5 | neutrophil infiltration, reduction ([3]; intravenous treatment, after IM): reduced by only one third | colonic transit time ([4]; 5 mg/kg intravenously preoperative, 24 hours after IM): 166 ± 87 s | colonic transit time ([4]; unoperated controls of the CNI-1493 group (S-CTL, FIG. 8E)): 118 ± 68 s | NO production (nitrite release) from ME ([5]; 5 mg/kg i.v. preoperative, ME taken 24 h after IM, cultured 24 h): 333 ± 198 µM | NO production (nitrite release) from ME ([5]; 5 mg/kg i.v., non-operated animals (basal)): 45.5 ± 52.2 µM
